# Where two headings read alike, the source gives them in different places.
# Experiments:
# [1] = system: large crabgrass (Digitaria sanguinalis); assay: Test B pre-/postemergence plant response; format: in vivo; conditions: for pest or weed control at 16 g/ha / pest or weed control at 31 g/ha / pest or weed control at 62 g/ha: Digitaria sanguinalis, read-out: Plant response rating, Crabgrass, Large
# In short: (§1)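 Seeds were sown and sprayed preemergence, while plants at 2 to 18 cm (1- to 4-leaf stage) got postemergence sprays. Compounds were formulated in a non-phytotoxic solvent mixture with surfactant. After 13 to 15 days in a greenhouse, injury was rated visually against untreated controls, 0 (no effect) to 100 (complete control).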
# [2] = system: woolly cupgrass (Eriochloa villosa); assay: Test B pre-/postemergence plant response; format: in vivo; conditions: for pest or weed control at 16 g/ha / pest or weed control at 31 g/ha / pest or weed control at 62 g/ha: Eriochloa villosa, read-out: Plant response rating, Cupgrass, Woolly
# In short: as §1
# [3] = 8 g ai/ha, postemergence, 0-100 scale
# [4] = Postemergence, 16 g ai/ha, scale 0 to 100
# [5] = Postemergence, 31 g ai/ha, scale 0 to 100, 0 no effect, 100 complete control
# [6] = Postemergence, 62 g ai/ha, scale 0 to 100, 0 no effect, 100 complete control
# [7] = Preemergence, 16 g ai/ha, scale 0 to 100 (0 no effect, 100 complete control)
# [8] = Preemergence, 31 g ai/ha, 0 to 100 scale, 0 no effect, 100 complete control
# [9] = Preemergence, 62 g ai/ha, scale 0 to 100
# [10] = Preemergence, 8 g ai/ha, scale 0 to 100
# [11] = Postemergence, 31 g ai/ha, scale 0 to 100
# [12] = Preemergence, 31 g ai/ha, scale 0 to 100 (0 no effect, 100 complete control)
# [13] = Preemergence, 62 g ai/ha, 0 to 100 scale, 0 no effect, 100 complete control
# [14] = Preemergence, 16 g ai/ha, scale 0 to 100
# [15] = Postemergence, 62 g ai/ha, scale 0 to 100
# [16] = Postemergence, 125 g ai/ha, scale 0 to 100
# [17] = Postemergence, 250 g ai/ha, scale 0 to 100
# [18] = Preemergence, 125 g ai/ha, scale 0 to 100
# [19] = Preemergence, 250 g ai/ha, scale 0 to 100
# [20] = post-emergence, Postemergence, 16 g ai/ha, scale 0 to 100
# [21] = post-emergence, Postemergence, 31 g ai/ha, scale 0 to 100
# [22] = post-emergence, Postemergence, 62 g ai/ha, scale 0 to 100, 0 no effect, 100 complete control
# [23] = pre-emergence, Preemergence, 31 g ai/ha, scale 0 to 100 (0 no effect, 100 complete control)
# [24] = pre-emergence, Preemergence, 62 g ai/ha, 0 to 100 scale, 0 no effect, 100 complete control
# [25] = Preemergence, 8 g ai/ha, scale 0 to 100 (0 no effect, 100 complete control)
Compound,"Crabgrass, Large plant response rating [1, 3]","Plant response rating, Crabgrass, Large [1, 4]","Plant response rating, Crabgrass, Large [1, 5]","Plant response rating, Crabgrass, Large [1, 6]","Plant response rating, Crabgrass, Large [1, 8]","Plant response rating, Crabgrass, Large [1, 9]","Crabgrass, Large plant response rating [1, 10]","Cupgrass, Woolly plant response rating [2, 3]","Plant response rating, Cupgrass, Woolly [2, 4]","Plant response rating, Cupgrass, Woolly [2, 5]","Plant response rating, Cupgrass, Woolly [2, 6]","Plant response rating, Cupgrass, Woolly [2, 8]","Plant response rating, Cupgrass, Woolly [2, 9]","Cupgrass, Woolly plant response rating [2, 10]","Crabgrass, Large plant response rating [1, 14]","Cupgrass, Woolly plant response rating [2, 14]",other results
CCc1cc(-c2ccc(Cl)cc2)nn1-c1c(OC(=O)C(C)(C)C)cnn(C)c1=O [Compound 40],70,98,98,100,100,100,45,98,98,100,100,100,100,15,,,"Plant response rating, Crabgrass, Large [1, 7]: 100; Plant response rating, Cupgrass, Woolly [2, 7]: 100"
CCc1cc(-c2ccc(Br)cc2)nn1-c1c(O)cnn(C)c1=O [Compound 61],98,100,,100,,,50,98,100,,100,,,80,95,98,"Plant response rating, Crabgrass, Large [1, 11]: 100; Plant response rating, Crabgrass, Large [1, 12]: 100; Plant response rating, Crabgrass, Large [1, 13]: 100; Plant response rating, Cupgrass, Woolly [2, 11]: 100; Plant response rating, Cupgrass, Woolly [2, 12]: 100; Plant response rating, Cupgrass, Woolly [2, 13]: 100"
4-[3-(4-chlorophenyl)-5-methyl-1H-pyrazol-3-yl]-5-hydroxy-2-methyl-3(2H)-pyridazinone [Compound 3],,,100,,90,90,,,,100,,50,50,,,,"Plant response rating, Crabgrass, Large [1, 15]: 100; Plant response rating, Crabgrass, Large [1, 16]: 100; Plant response rating, Crabgrass, Large [1, 17]: 100; Plant response rating, Crabgrass, Large [1, 18]: 100; Plant response rating, Crabgrass, Large [1, 19]: 100; Plant response rating, Cupgrass, Woolly [2, 15]: 100; Plant response rating, Cupgrass, Woolly [2, 16]: 100; Plant response rating, Cupgrass, Woolly [2, 17]: 100; Plant response rating, Cupgrass, Woolly [2, 18]: 90; Plant response rating, Cupgrass, Woolly [2, 19]: 100"
"Cc1cc(-c2ccc(Br)cc2)nn1-c1c(O)cn[nH]c1=O [Compound 78, 4-[3-(4-bromophenyl)-5-methyl-1H-pyrazol-1-yl]-5-hydroxy-3(2H)-pyridazinone]",98,,,,,,,98,,,,,,,95,98,"pest or weed control at 16 g/ha [1, 20]: 100%; pest or weed control at 31 g/ha [1, 21]: 100%; pest or weed control at 62 g/ha [1, 22]: 100%; pest or weed control at 31 g/ha [1, 23]: 100%; pest or weed control at 62 g/ha [1, 24]: 100%; Crabgrass, Large plant response rating [1, 25]: 15; pest or weed control at 16 g/ha [2, 20]: 100%; pest or weed control at 31 g/ha [2, 21]: 100%; pest or weed control at 62 g/ha [2, 22]: 100%; pest or weed control at 31 g/ha [2, 23]: 100%; pest or weed control at 62 g/ha [2, 24]: 100%; Cupgrass, Woolly plant response rating [2, 25]: 65"
"Cc1cc(-c2ccc(Br)cc2)nn1-c1c(OC(=O)C2CC2)cnn(C(=O)C2CC2)c1=O [Compound 80, 5-[3-(4-bromophenyl)-5-methyl-1H-pyrazol-1-yl]-1-(cyclopropylcarbonyl)-1,6-dihydro-6-oxo-4-pyridazinyl cyclopropanecarboxylate]",98,,,,,,,80,,,,,,,98,65,"pest or weed control at 16 g/ha [1, 20]: 100%; pest or weed control at 31 g/ha [1, 21]: 100%; pest or weed control at 62 g/ha [1, 22]: 100%; pest or weed control at 31 g/ha [1, 23]: 100%; pest or weed control at 62 g/ha [1, 24]: 100%; Crabgrass, Large plant response rating [1, 25]: 0; pest or weed control at 16 g/ha [2, 20]: 95%; pest or weed control at 31 g/ha [2, 21]: 100%; pest or weed control at 62 g/ha [2, 22]: 100%; pest or weed control at 31 g/ha [2, 23]: 98%; pest or weed control at 62 g/ha [2, 24]: 100%; Cupgrass, Woolly plant response rating [2, 25]: 0"
CCc1cc(-c2ccc(Cl)cc2)nn1-c1c(OS(C)(=O)=O)cnn(C)c1=O [Compound 39],70,90,98,100,100,100,60,80,95,100,100,95,98,20,,,"Plant response rating, Crabgrass, Large [1, 7]: 100; Plant response rating, Cupgrass, Woolly [2, 7]: 65"
Cc1cc(-c2ccc(Br)cc2)nn1-c1c(O)cnn(C)c1=O [Compound 4],,,100,,100,100,,,,100,,85,85,,,,"Plant response rating, Crabgrass, Large [1, 15]: 100; Plant response rating, Crabgrass, Large [1, 16]: 100; Plant response rating, Crabgrass, Large [1, 17]: 100; Plant response rating, Crabgrass, Large [1, 18]: 100; Plant response rating, Crabgrass, Large [1, 19]: 100; Plant response rating, Cupgrass, Woolly [2, 15]: 100; Plant response rating, Cupgrass, Woolly [2, 16]: 100; Plant response rating, Cupgrass, Woolly [2, 17]: 100; Plant response rating, Cupgrass, Woolly [2, 18]: 100; Plant response rating, Cupgrass, Woolly [2, 19]: 100"
